{"source": "patent US20050038102A1", "about": "“Upregulation of type III endothelial cell Nitric Oxide Synthase by HMG-CoA reductase inhibitors” (BRIGHAM AND WOMENS HOSPITAL, priority 1997, published 2005)", "key": {"wild type mice": {"tested_on": "wild type mice", "assay": "Regional cerebral blood flow by laser-Doppler flowimetry, wild type and simvastatin-treated mice", "type": "in vivo", "method": "(§1) Regional cerebral blood flow (rCBF) was monitored by laser-Doppler flowimetry in groups of urethane-anesthetized, ventilated mice. Additional physiological variables were also monitored in the mice, including mean arterial blood pressure (MABP), heart rate, blood pH, PaO2, and PaCO2.\n(§2) FIG. 5 is a bar graph showing regional CBF changes in wild type and eNOS null mice for 40 min after L-arginine (450 mg/kg) or saline infusion at a constant rate of 100 microliter/kg/min over 15 min. The number of mice in each group is indicated in parenthesis. Error bars denote standard error of the mean (SEM), and an asterisk (*) denotes statistically significant difference (P<0.05) compared with baseline control by one-way ANOVA followed by Fisher's protected least-squares difference test.\nError bars denote SEM and an asterisk (*) denotes statistically significant difference (P<0.05) compared with baseline control by one-way ANOVA followed by Fisher's protected least-squares difference test."}, "ecNOS protein": {"tested_on": "ecNOS protein", "assay": "Western blotting of ecNOS protein levels in endothelial cells", "type": "cell-based, human", "conditions": "for increase in ecNOS protein levels / increase in ecNOS protein levels / ecNOS expression: 0.1 mmol/L alone", "method": "Human endothelial cells were harvested from saphenous veins and cultured as described (15). For transfection studies, bovine aortic endothelial cells of less than 3 passages were cultured in a growth medium containing DMEM (Dulbecco's Modified Eagle's Medium), 5 mmol/L L-glutamine (Gibco), and 10% fetal calf serum (Hyclone Lot# 114577). For all experiments, the endothelial cells were placed in 10% lipoprotein-deficient serum (Sigma, Lot#26H9403 1) for 48 h prior to treatment conditions. […] Cellular viability as determined by cell count, morphology, and Trypan blue exclusion was maintained for all treatment conditions.\nCellular proteins were prepared and separated on SDS/PAGE as described (Liao, J K et al., J Biol Chem, 1995, 270:319-324.). Immunoblotting was performed using a murine monoclonal antibody to human ecNOS (1:400 dilution, Transduction Laboratories, Lexington, Ky.). Immunodetection was accomplished using a sheep anti-mouse secondary antibody (1:4000 dilution) and the enhanced chemiluminescence (ECL) kit (Amersham Corp., Arlington Heights, Ill.). Autoradiography was performed at 23° C. and the appropriate exposures were quantitated by densitometry.\nHuman endothelial cells were harvested from saphenous veins using Type II collagenase (Worthington Biochemical Corp., Freehold, N.J.) as previously described. Cells of less than three passages were grown to confluence in a culture medium containing Medium 199, 20 mM HEPES, 50 mg/ml ECGS (Collaborative Research Inc., Bedford, Mass.), […] heparin sulfate, 5 mM L-glutamine (Gibco), 5% fetal calf serum (Hyclone, Logan, Utah), and antibiotic mixture of penicillin (100 U/ml)/ streptomycin ([…])/Fungizone (1.25 mg/ml). For all experiments, the endothelial cells were grown to confluence before any treatment conditions. In some experiments, cells were pretreated with actinomycin D (5 mg/ml) for 1 h prior to treatment with HMG-CoA reductase inhibitors. […]"}, "ecNOS mRNA [1]": {"tested_on": "ecNOS mRNA", "assay": "Quantitative RT-PCR of ecNOS mRNA in mouse aortae and brains", "type": "in vivo, mice"}, "ecNOS mRNA [2]": {"tested_on": "ecNOS mRNA", "assay": "ecNOS mRNA half-life in the presence of actinomycin D", "type": "cell-based, human"}, "ecNOS": {"tested_on": "ecNOS", "assay": "Assay for ecNOS activity (LNMA-inhibitable nitrite production)", "type": "cell-based, human", "conditions": "higher concentration"}, "wildtype SV-129 mice": {"tested_on": "wildtype SV-129 mice", "assay": "Murine model of cerebral vascular ischemia (MCA occlusion), wild-type", "type": "in vivo", "conditions": "lovastatin treatment", "text": "The neurological motor deficit score improved in simvastatin-treated mice (n-18) by almost 2-fold compared to that of controls (n=12) (0.8±0.2 vs. 1.7±0.2, p<0.01)."}, "eNOS null mice": {"tested_on": "eNOS null mice", "assay": "Regional cerebral blood flow by laser-Doppler flowimetry, eNOS null mice", "type": "in vivo", "conditions": "L-arginine 450 mg/kg, i.v., 40 minute recording period", "method": "as §1, with “L-arginine infusion at 300 mg/kg, i.v., caused modest (10%) and variable elevations in regional cerebral blood flow (rCBF) after infusion in several preliminary experiments (n=4, data not shown). […] Regional” for “Regional”\nas §2"}, "[3]": {"conditions": "1 mmol/L alone (concentration series), 48 h"}, "[4]": {"conditions": "10 mmol/L alone (concentration series), 48 h"}}}
{"compound": "CCC(C)(C)C(=O)O[C@H]1C[C@@H](C)C=C2C=C[C@H](C)[C@H](CC[C@@H]3C[C@@H](O)CC(=O)O3)[C@H]21", "note": "[simvastatin]", "values": [{"measurement": "increase in baseline rCBF", "setting": "wild type mice; chronic daily administration of simvastatin alone", "value": 25, "unit": "%"}, {"measurement": "increase in ecNOS expression", "setting": "ecNOS protein; 0.01 mmol/L alone (series 0.01 to 10 mmol/L), 48 h", "value": 1, "unit": "%"}, {"measurement": "increase in ecNOS protein levels", "setting": "ecNOS protein; 12 h", "value": 4, "unit": "%"}, {"measurement": "increase in ecNOS protein levels", "setting": "ecNOS protein; 24 h", "value": 21, "unit": "%"}, {"measurement": "increase in ecNOS protein levels / ecNOS expression", "setting": "ecNOS protein; 48 h", "value": 80, "unit": "%"}, {"measurement": "increase in ecNOS protein levels", "setting": "ecNOS protein; 72 h", "value": 90, "unit": "%"}, {"measurement": "increase in ecNOS protein levels", "setting": "ecNOS protein; 84 h", "value": 95, "unit": "%"}, {"measurement": "increase in ecNOS expression", "setting": "ecNOS protein; [3]", "value": 190, "unit": "%"}, {"measurement": "increase in ecNOS expression", "setting": "ecNOS protein; [4]", "value": 310, "unit": "%"}, {"measurement": "decrease in ecNOS protein level", "setting": "ecNOS protein; simvastatin 0.1 mmol/L + ox-LDL 50 mg/ml, 24 h", "value": 15, "unit": "%"}, {"measurement": "ecNOS protein levels increased above basal expression", "setting": "ecNOS protein; simvastatin 0.1 mmol/L + ox-LDL 50 mg/ml, 72 h", "value": 110, "unit": "%"}, {"measurement": "ecNOS protein levels increased above basal expression", "setting": "ecNOS protein; simvastatin 0.1 mmol/L + ox-LDL 50 mg/ml, 96 h", "value": 124, "unit": "%"}, {"measurement": "ecNOS expression above basal expression", "setting": "ecNOS protein; simvastatin 1 mmol/L + ox-LDL 50 mg/ml (TBARS 15.1 nmol/mg), 48 h", "value": 150, "unit": "%"}, {"measurement": "ecNOS protein levels above baseline", "setting": "ecNOS protein; simvastatin 10 mmol/L + ox-LDL 50 mg/ml, 48 h", "value": "210%±12%"}, {"measurement": "increase in ecNOS expression in infarcted, ipsilateral hemisphere compared to contralateral side", "setting": "ecNOS mRNA [1]; simvastatin 2 mg/kg, 14 days, brain, with respect to GAPDH mRNA", "value": "1.5-to 2 fold"}, {"measurement": "increase of ecNOS message compared to that of GAPDH, aortae", "setting": "ecNOS mRNA [1]; simvastatin-treated mice, dose-dependent", "value": 3, "unit": "fold"}, {"measurement": "half-life of ecNOS mRNA (t½)", "setting": "ecNOS mRNA [2]; simvastatin 0.1 mmol/L + ox-LDL", "value": "22 ± 3", "unit": "h"}, {"measurement": "half-life of ecNOS mRNA (t½)", "setting": "ecNOS mRNA [2]; simvastatin alone", "value": "43 ± 4", "unit": "h"}]}
{"compound": "L-mevalonate", "values": [{"measurement": "observable adverse effects on cellular morphology", "setting": "human endothelial cell", "value": "no observable adverse effects"}, {"measurement": "reduction of ecNOS protein compared to cells treated with ox-LDL and simvastatin", "setting": "ecNOS protein; addition of L-mevalonate 100 mmol/L to ox-LDL + simvastatin 1 mmol/L", "value": "50%±5%"}]}
{"compound": "CC[C@H](C)C(=O)O[C@H]1C[C@@H](C)C=C2C=C[C@H](C)[C@H](CC[C@@H]3C[C@@H](O)CC(=O)O3)[C@H]21", "note": "[lovastatin]", "values": [{"measurement": "increase in ecNOS protein levels / ecNOS expression", "setting": "ecNOS protein; 48 h", "value": 10, "unit": "%"}, {"measurement": "increase in ecNOS expression", "setting": "ecNOS protein; [3]", "value": 105, "unit": "%"}, {"measurement": "increase in ecNOS expression", "setting": "ecNOS protein; [4]", "value": 180, "unit": "%"}, {"measurement": "potency in upregulating ecNOS protein levels, less potent than simvastatin", "setting": "ecNOS protein; equimolar concentrations", "value": 10, "unit": "fold"}, {"measurement": "effect on ecNOS expression", "setting": "ecNOS protein; not chemically-activated", "value": "had no effect on ecNOS expression"}, {"measurement": "concentration needed for similar findings, compared to that of simvastatin", "setting": "ecNOS", "value": 10, "unit": "fold"}, {"measurement": "reduction of cerebral infarct size", "setting": "wildtype SV-129 mice", "value": "also occurred with lovastatin treatment, albeit at higher relative concentrations"}]}
{"compound": "N=C(N)NCCC[C@H](N)C(=O)O", "note": "[L-arginine]", "values": [{"measurement": "elevation in regional cerebral blood flow (rCBF)", "setting": "wild type mice; L-arginine 300 mg/kg, i.v., preliminary experiments", "value": 10, "unit": "%"}, {"measurement": "time at which increase in rCBF began", "setting": "wild type mice; L-arginine 450 mg/kg, i.v., wild type mice", "value": "5 to 10", "unit": "min"}, {"measurement": "maximum increase in rCBF above baseline", "setting": "wild type mice; L-arginine 450 mg/kg, i.v., wild type mice, at 20-25 min", "value": 26, "unit": "%"}, {"measurement": "additional time for which rCBF increases were sustained", "setting": "wild type mice; L-arginine infusion in simvastatin-treated mice", "value": 20, "unit": "min"}, {"measurement": "maximum increase in rCBF over simvastatin baseline", "setting": "wild type mice; L-arginine infusion in simvastatin-treated mice, at 15-20 min", "value": "29-31%"}, {"measurement": "rCBF change", "setting": "eNOS null mice", "value": "−4 to +5%"}]}
